Assay results reported in PubChem BioAssay (NCI).
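Dose response: 5 concentrations. Exposure: 48 h. Format: 96-well plates. Endpoint: linear interpolation; highest concentration if not reached. GI50 = concentration required for 50% inhibition of growth. TGI denotes the concentration required for complete inhibition of growth.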

What was measured:
Experiment in all cases: growth of human tumour cells (NCI), 48 h
[1] = test system: 786-0 renal
[2] = test system: A498 renal
[3] = test system: A549 NSCLC
[4] = test system: ACHN renal
[5] = test system: BT-549 breast
[6] = test system: CAKI-1 renal
[7] = test system: CCRF-CEM leukemia
[8] = test system: COLO 205 colon
[9] = test system: DU-145 prostate
[10] = test system: EKVX NSCLC
[11] = test system: HCC-2998 colon
[12] = test system: HCT-116 colon
[13] = test system: HCT-15 colon
[14] = test system: HL-60(TB) leukemia
[15] = test system: HOP-62 NSCLC
[16] = test system: HOP-92 NSCLC
[17] = test system: HS 578T breast
[18] = test system: HT29 colon
[19] = test system: IGROV1 ovarian
[20] = test system: K-562 leukemia
[21] = test system: KM12 colon
[22] = test system: LOX IMVI melanoma
[23] = test system: M14 melanoma
[24] = test system: MALME-3M melanoma
[25] = test system: MDA-MB-231 breast
[26] = test system: MDA-MB-435
[27] = test system: MOLT-4 leukemia
[28] = test system: NCI-H226 lung
[29] = test system: NCI-H23 lung
[30] = test system: NCI-H460 lung
[31] = test system: NCI-H522 lung
[32] = test system: NCI/ADR-RES ovarian
[33] = test system: OVCAR-3 ovarian
[34] = test system: OVCAR-4 ovarian
[35] = test system: OVCAR-5 ovarian
[36] = test system: OVCAR-8 ovarian
[37] = test system: PC-3 prostate
[38] = test system: RPMI-8226 leukemia
[39] = test system: RXF 393 renal
[40] = test system: SF-268 CNS
[41] = test system: SF-295 CNS
[42] = test system: SF-539 CNS
[43] = test system: SK-MEL-2 melanoma
[44] = test system: SK-MEL-28 melanoma
[45] = test system: SK-MEL-5 melanoma
[46] = test system: SK-OV-3 ovarian
[47] = test system: SN12C renal
[48] = test system: SNB-19 CNS
[49] = test system: SNB-75 CNS
[50] = test system: SR leukemia
[51] = test system: SW-620 colon
[52] = test system: T-47D breast
[53] = test system: TK-10 renal
[54] = test system: U251 CNS
[55] = test system: UACC-257 melanoma
[56] = test system: UACC-62 melanoma
[57] = test system: UO-31 renal

O=C1/C=C/[C@@H](O)[C@@H]2C[C@@H](O)C[C@H]2/C=C/CCC[C@H](CCc2ccc(NC(=S)Nc3ccc4c(c3)C(=O)OC43c4ccc(O)cc4Oc4cc(O)ccc43)cc2)O1
GI50 [1]: 262 nM
TGI [1]: 771 nM
GI50 [2]: 141 nM
TGI [2]: 458 nM
GI50 [3]: 448 nM
TGI [3]: > 100000 nM
GI50 [4]: 803 nM
TGI [4]: > 100000 nM
GI50 [5]: 451 nM
TGI [5]: 73700 nM
GI50 [6]: 1650 nM
TGI [6]: > 100000 nM
GI50 [7]: 426 nM
TGI [7]: > 100000 nM
GI50 [8]: 208 nM
TGI [8]: 384 nM
GI50 [9]: 2810 nM
TGI [9]: > 100000 nM
GI50 [10]: 409 nM
TGI [10]: > 100000 nM
GI50 [11]: 302 nM
GI50 [12]: 523 nM
TGI [12]: 4950 nM
GI50 [13]: 889 nM
TGI [13]: > 100000 nM
GI50 [14]: 4510 nM
TGI [14]: > 100000 nM
GI50 [15]: 518 nM
TGI [15]: > 100000 nM
GI50 [16]: 932 nM
TGI [16]: > 27600 nM
GI50 [17]: 305 nM
TGI [17]: > 100000 nM
GI50 [18]: 365 nM
TGI [18]: 3610 nM
GI50 [19]: 622 nM
TGI [19]: 2690 nM
GI50 [20]: 1170 nM
TGI [20]: > 100000 nM
GI50 [21]: 322 nM
TGI [21]: 971 nM
GI50 [22]: 244 nM
GI50 [23]: 360 nM
TGI [23]: > 49200 nM
GI50 [24]: 2260 nM
TGI [24]: > 100000 nM
GI50 [25]: 210 nM
TGI [25]: 402 nM
GI50 [26]: 377 nM
TGI [26]: > 100000 nM
GI50 [27]: 432 nM
TGI [27]: 4070 nM
GI50 [28]: 287 nM
TGI [28]: 783 nM
GI50 [29]: 439 nM
TGI [29]: > 74000 nM
GI50 [30]: 2620 nM
TGI [30]: > 100000 nM
GI50 [31]: 1600 nM
TGI [31]: 5240 nM
GI50 [32]: 407 nM
TGI [32]: > 100000 nM
GI50 [33]: 317 nM
TGI [33]: 862 nM
GI50 [34]: 333 nM
GI50 [35]: 698 nM
TGI [35]: > 100000 nM
GI50 [36]: 401 nM
TGI [36]: > 100000 nM
GI50 [37]: 516 nM
TGI [37]: > 100000 nM
GI50 [38]: 339 nM
TGI [38]: 2390 nM
GI50 [39]: 266 nM
TGI [39]: 736 nM
GI50 [40]: 405 nM
TGI [40]: > 100000 nM
GI50 [41]: 486 nM
TGI [41]: > 100000 nM
GI50 [42]: 724 nM
TGI [42]: > 100000 nM
GI50 [43]: 456 nM
TGI [43]: 5220 nM
GI50 [44]: 263 nM
TGI [44]: 815 nM
GI50 [45]: 164 nM
TGI [45]: 311 nM
GI50 [46]: 578 nM
TGI [46]: > 100000 nM
GI50 [47]: 2170 nM
TGI [47]: > 100000 nM
GI50 [48]: 590 nM
TGI [48]: > 100000 nM
GI50 [49]: 252 nM
TGI [49]: > 100000 nM
GI50 [50]: 517 nM
TGI [50]: > 100000 nM
GI50 [51]: 337 nM
GI50 [52]: 1390 nM
TGI [52]: 76000 nM
GI50 [53]: 608 nM
TGI [53]: 12600 nM
GI50 [54]: 470 nM
TGI [54]: > 100000 nM
GI50 [55]: 547 nM
TGI [55]: > 75500 nM
GI50 [56]: 397 nM
TGI [56]: 30700 nM
GI50 [57]: 335 nM
TGI [57]: > 100000 nM
